Source: US7888329B2, “Substituted aryl piperidinylalkynyladenosines as A2AR agonists” (PGxHealth, LLC, priority 2006, dated 2011)
Where two headings read alike, the source gives them in different places.

How the values were obtained:
[1] = target: T1, recombinant human A2A receptors (Homo sapiens, UniProt P29274); assay: Radioligand competition binding with 125I-APE or 125I-ZM241385, Sf9 cell membranes; conditions: 125I-APE or 125I-ZM241385, Sf9 membranes; class symbols
T1 construct: expressed in transfected cells; host or cells: Sf9 insect cells infected with virus; membranes
T1 sequence (P29274 whole entry): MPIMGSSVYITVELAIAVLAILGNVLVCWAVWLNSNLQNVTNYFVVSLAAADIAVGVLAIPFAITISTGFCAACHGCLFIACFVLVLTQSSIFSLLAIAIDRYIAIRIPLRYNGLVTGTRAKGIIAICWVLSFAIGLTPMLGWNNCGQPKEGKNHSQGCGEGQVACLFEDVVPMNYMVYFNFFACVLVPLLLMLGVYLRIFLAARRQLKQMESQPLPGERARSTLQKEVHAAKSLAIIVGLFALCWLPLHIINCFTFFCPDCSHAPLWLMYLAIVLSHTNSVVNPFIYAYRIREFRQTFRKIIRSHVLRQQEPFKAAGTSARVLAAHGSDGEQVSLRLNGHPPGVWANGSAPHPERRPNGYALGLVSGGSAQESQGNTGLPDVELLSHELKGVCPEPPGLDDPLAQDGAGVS
Protocol: Cell culture and membrane preparation. Sf9 cells were cultured in Grace's medium supplemented with 10% fetal bovine serum, 2.5 μg/ml amphotericin B and 50 μg/ml gentamycin in an atmosphere of 50% N2/50% O2. Viral infection was performed at a density of 2.5×10^6 cells/mL with a multiplicity of infection of two for each virus used. Infected cells were harvested 3 days post-infection and washed twice in insect PBS (PBS pH 6.3). Cells were then resuspended in lysis buffer (20 mM HEPES pH 7.5, 150 mM NaCl, 3 mM MgCl2, 1 mM α-mercaptoethanol (BME), 5 μg/mL leupeptin, 5 μg/mL pepstatin A, 1 μg/mL aprotinin, and 0.1 mM PMSF) and snap frozen for storage at −80° C. Cells were thawed on ice, brought to 30 mL total volume in lysis buffer, and burst by N2 cavitation (600 psi for 20 minutes). A low-speed centrifugation was performed to remove any unlysed cells (1000×g for 10 minutes), followed by a high-speed centrifugation (17,000×g for 30 minutes). The pellet from the final centrifugation was homogenized in buffer containing 20 mM HEPES pH 8, 1100 mM NaCl, 1% glycerol, 2 μg/mL leupeptin, 2 μg/mL pepstatin A, 2 μg/mL Aprotinin, 0.1 mM PMSF, and 10 μM GDP using a small glass homogenizer followed by passage through a 26 gauge needle. Membranes were aliquoted, snap frozen in liquid N2, and stored at −80° C.
Radioligand Binding Assays. […] Binding experiments were performed in triplicate with 5 μg (A2A) or 25 μg (A1 and A3) membrane protein in a total volume of 00.1 mL HE buffer (20 mM HEPES and 1 mM EDTA) with 1 U/mL adenosine deaminase and 5 mM MgCl2 with or without 50 μM GTPγS. Membranes were incubated with radioligands at room temperature for three hours (for agonists) or two hours (for antagonists) in Millipore Multiscreen® 96-well GF/C filter plates and assays were terminated by rapid filtration on a cell harvester (Brandel, Gaithersburg, Md.) followed by 4×150 μl washes over 30 seconds with ice cold 10 mM Tris-HCl, pH 7.4, 10 mM MgCl2. Nonspecific binding was measured in the presence of 50 μM NECA.

[2] = tested on: Purified human neutrophils; assay: Luminol enhanced chemiluminescence (neutrophil oxidative activity), fMLP stimulated; format: cell-based; conditions: Homo sapiens, Neutrophil
Description: Chemiluminescence Methods: Luminol enhanced chemiluminescence, a measure of neutrophil oxidative activity, is dependent upon both superoxide production and mobilization of the granule enzyme myeloperoxidase. The light is emitted from unstable high-energy oxygen species such as hypochlorous acid and singlet oxygen generated by activated neutrophils.
Purified human neutrophils (2×10^6/ml) suspended in Hanks balanced salt solution containing 0.1% human serum albumin (HA), adenosine deaminase (1 U/mL) and rolipram (100 nM) were incubated (37 C) in a water bath for 15 min with or without rhTNF (10 U/ml). Following incubation 100 µL aliquots of the PMN were transferred to wells (White walled clear bottom 96 well tissue culture plates Costar #3670; 2 wells/condition) containing […] and luminol (final concentration 100M) with or without adenosine agonist (final agonist concentrations 0.01-1000 nM). The plate was incubated 5 min (37 C) and then fMLP (50 l in HA; final concentration […]) was added to all wells.
Peak chemiluminescence was determined with a Victor 1420 Multilabel Counter in the chemiluminescence mode using the Wallac Workstation software. Data are presented as peak chemiluminescence as percent of activity in the absence of an adenosine agonist. The EC50 was determined using PRISM software. All compounds were tested with PMNs from three separate donors.

human A3 AR = target: T2, human A3 AR (Homo sapiens, UniProt P0DMS8); assay: Radioligand competition binding with 125I-ABA, membranes of HEK 293 cells stably expressing the receptor; conditions: Ki derived from IC50, class symbols
T2 construct: expressed in transfected cells; membranes
T2 sequence (P0DMS8 1-318): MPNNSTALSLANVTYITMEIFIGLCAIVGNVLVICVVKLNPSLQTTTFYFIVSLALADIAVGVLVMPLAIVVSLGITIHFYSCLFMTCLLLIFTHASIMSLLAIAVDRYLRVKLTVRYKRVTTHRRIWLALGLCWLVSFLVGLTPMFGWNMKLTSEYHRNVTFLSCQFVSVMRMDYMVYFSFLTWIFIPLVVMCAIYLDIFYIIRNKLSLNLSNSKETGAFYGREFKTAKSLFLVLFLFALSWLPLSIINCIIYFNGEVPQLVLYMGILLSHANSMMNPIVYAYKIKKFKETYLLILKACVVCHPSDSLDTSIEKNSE
Protocol: Cell culture and membrane preparation. Sf9 cells were cultured in Grace's medium supplemented with 10% fetal bovine serum, 2.5 μg/ml amphotericin B and 50 μg/ml gentamycin in an atmosphere of 50% N2/50% O2. Viral infection was performed at a density of 2.5×10^6 cells/mL with a multiplicity of infection of two for each virus used. Infected cells were harvested 3 days post-infection and washed twice in insect PBS (PBS pH 6.3). Cells were then resuspended in lysis buffer (20 mM HEPES pH 7.5, 150 mM NaCl, 3 mM MgCl2, 1 mM α-mercaptoethanol (BME), 5 μg/mL leupeptin, 5 μg/mL pepstatin A, 1 μg/mL aprotinin, and 0.1 mM PMSF) and snap frozen for storage at −80° C. Cells were thawed on ice, brought to 30 mL total volume in lysis buffer, and burst by N2 cavitation (600 psi for 20 minutes). A low-speed centrifugation was performed to remove any unlysed cells (1000×g for 10 minutes), followed by a high-speed centrifugation (17,000×g for 30 minutes). The pellet from the final centrifugation was homogenized in buffer containing 20 mM HEPES pH 8, 1100 mM NaCl, 1% glycerol, 2 μg/mL leupeptin, 2 μg/mL pepstatin A, 2 μg/mL Aprotinin, 0.1 mM PMSF, and 10 μM GDP using a small glass homogenizer followed by passage through a 26 gauge needle. Membranes were aliquoted, snap frozen in liquid N2, and stored at −80° C. Membranes from cells stably expressing the human A1 AR (CHO K1 cells) or A3 AR (HEK 293 cells) were prepared as described (Robeva et al., 1996).
Radioligand Binding Assays. Radioligand binding to recombinant human A2A receptors in Sf9 cell membranes was performed using either the radiolabeled agonist, ^125I-APE (Luthin et al., 1995) or the radiolabeled antagonist, ^125I-ZM241385 (^125I-ZM). To detect the high affinity, GTPγS-sensitive state of A1 and A3 AR, we used the agonist, ^125I-ABA (Linden et al., 1985; Linden et al., 1993). Binding experiments were performed in triplicate with 5 μg (A2A) or 25 μg (A1 and A3) membrane protein in a total volume of 00.1 mL HE buffer (20 mM HEPES and 1 mM EDTA) with 1 U/mL adenosine deaminase and 5 mM MgCl2 with or without 50 μM GTPγS. Membranes were incubated with radioligands at room temperature for three hours (for agonists) or two hours (for antagonists) in Millipore Multiscreen® 96-well GF/C filter plates and assays were terminated by rapid filtration on a cell harvester (Brandel, Gaithersburg, Md.) followed by 4×150 μl washes over 30 seconds with ice cold 10 mM Tris-HCl, pH 7.4, 10 mM MgCl2. Nonspecific binding was measured in the presence of 50 μM NECA. Competition binding assays were performed as described (Robeva et al., 1996) using 0.5-1 nM ^125I-APE, ^125I-ZM241385, or ^125I-ABA. […] The Ki values for competing compound binding to a single site were derived from IC50 values with correction for radioligand and competing compound depletion as described previously (Linden, 1982).

human A1 AR = target: T3, human A1 AR (Homo sapiens, UniProt P30542); assay: Radioligand competition binding with 125I-ABA, membranes of CHO K1 cells stably expressing the receptor; conditions: Ki derived from IC50, class symbols
T3 construct: expressed in transfected cells; membranes
T3 sequence (P30542 1-326): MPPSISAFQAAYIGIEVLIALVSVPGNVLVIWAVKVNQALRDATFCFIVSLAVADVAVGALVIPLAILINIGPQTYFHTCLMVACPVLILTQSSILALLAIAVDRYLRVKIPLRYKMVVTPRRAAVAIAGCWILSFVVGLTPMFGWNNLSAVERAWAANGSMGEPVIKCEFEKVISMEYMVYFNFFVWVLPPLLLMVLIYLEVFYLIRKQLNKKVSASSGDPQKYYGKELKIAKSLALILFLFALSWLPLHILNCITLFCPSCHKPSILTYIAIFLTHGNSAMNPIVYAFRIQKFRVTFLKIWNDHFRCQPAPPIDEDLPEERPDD

Compound	Ki [1] [nM]	EC50 ([2]; read-out: Functional) [nM]	Ki (human A3 AR) [nM]	Ki (human A1 AR) [nM]	EC50 ([2]; read-out: Functional (nM)) [nM]
COC(=O)c1ccc(OC(=O)N2CCC(CC#Cc3nc(N)c4ncn([C@@H]5O[C@H](CO)[C@@H](O)[C@H]5O)c4n3)CC2)cc1 [Compound 13, 2-{3-[1-((4-Methoxycarbonylphenoxy)carbonyl)piperidin-4-yl]propyn-1-yl}adenosine]	< 1	< 10	< 100	< 100	–
Nc1nc(C#CCC2CCN(C(=O)Oc3cccc([N+](=O)[O-])c3)CC2)nc2c1ncn2[C@@H]1O[C@H](C(=O)NC2CC2)C(O)[C@@H]1O (stereo partly drawn) [Compound 56, N-Cyclopropyl 2-{3-[1-(3-nitrophenoxycarbonyl)-4-piperidinyl]-1-propyn-1-yl}adenosine-5′-uronamide]	< 1	< 1	> 100	< 100	–
Nc1nc(CCCC2CCN(C(=O)Oc3ccccc3)CC2)nc2c1ncn2[C@@H]1O[C@H](C(=O)NC2CC2)C(O)[C@@H]1O (stereo partly drawn) [Compound 38]	< 100	–	> 100	> 100	< 100
Nc1nc(C#CCC2CCN(C(=O)Nc3ccc(Cl)cc3)CC2)nc2c1ncn2[C@@H]1O[C@H](CO)C(O)[C@@H]1O (stereo partly drawn) [Compound 45]	< 10	> 100	< 100	< 100	–
Nc1nc(C#CCC2CCN(C(=O)Oc3ccccc3)CC2)nc2c1ncn2[C@@H]1O[C@H](CO)[C@@H](O)[C@H]1O [Compound 4, 2-{3-[1-(Phenoxycarbonyl)piperidin-4-yl]propyn-1-yl}adenosine, reference compound]	< 1	< 10	< 10	< 100	–
Nc1nc(C#CCC2CCN(C(=O)Oc3ccc(C(=O)O)cc3)CC2)nc2c1ncn2[C@@H]1O[C@H](C(=O)NC2CC2)C(O)[C@@H]1O (stereo partly drawn) [Compound 14, N-Cyclopropyl 2-{3-[1-(4-carboxyphenoxycarbonyl)-4-piperidinyl]-1-propyn-1-yl}adenosine-5′-uronamide]	< 10	< 100	> 100	> 100	–
CCNC(=O)[C@H]1O[C@@H](n2cnc3c(N)nc(C#CCC4CCN(C(=O)Oc5ccc(N)cc5)CC4)nc32)[C@@H](O)C1O (stereo partly drawn) [Compound 34, N-Ethyl 2-{3-[1-(4-aminophenoxycarbonyl)-4-piperidinyl]-1-propyn-1-yl}adenosine-5′-uronamide]	< 10	< 1	< 100	< 100	–
Cc1ccc(OC(=O)N2CCC(CC#Cc3nc(N)c4ncn([C@@H]5O[C@H](CO)[C@@H](O)[C@H]5O)c4n3)CC2)cc1C [Compound 53, 2-{3-[1-((3,4-Dimethyl)phenoxycarbanoyl)piperidin-4-yl]propyn-1-yl}adenosine]	< 1	< 10	< 100	< 100	–
CCNC(=O)[C@H]1O[C@@H](n2cnc3c(N)nc(CCCC4CCN(C(=O)Oc5ccc(NO)cc5)CC4)nc32)[C@@H](O)C1O (stereo partly drawn) [Compound 37]	< 1	–	< 100	< 100	< 10
Nc1nc(C#CCC2CCN(C(=O)Oc3ccccc3Cl)CC2)nc2c1ncn2[C@@H]1O[C@H](C(=O)NC2CC2)C(O)[C@@H]1O (stereo partly drawn) [Compound 22, N-Cyclopropyl 2-{3-[1-(2-chlorophenyloxycarbonyl)-4-piperidinyl]-1-propyn-1-yl}adenosine-5′-uronamide]	< 1	< 10	> 100	< 100	–
CCNC(=O)[C@H]1O[C@@H](n2cnc3c(N)nc(C#CCC4CCN(C(=O)Oc5ccc(F)c(F)c5)CC4)nc32)[C@@H](O)C1O (stereo partly drawn) [Compound 50, N-Ethyl 2-{3-[1-(3,4-difluorophenoxycarbonyl)-4-piperidinyl]-1-propyn-1-yl}adenosine-5′-uronamide]	< 1	< 1	< 100	< 100	–
Nc1nc(C#CCC2CCN(C(=O)Oc3ccc([N+](=O)[O-])cc3)CC2)nc2c1ncn2[C@@H]1O[C@H](CO)[C@@H](O)[C@H]1O [Compound 12, 2-{3-[1-((4-Nitrophenoxy)carbonyl)piperidin-4-yl]propyn-1-yl}adenosine]	< 1	< 1	< 100	< 100	–
